Source: patent US10023611B2, “Process for the preparation of bortezomib mannitol ester” (Cipla Limited, priority 2013, dated 2018)

Tests used:
Water solubility = type: physicochemical
Method: Bortezomib (a boronic acid compound), in its solid state as a pure API existed in the form of highly water insoluble boroxine, a cyclic boronic acid anhydride. When placed in water, the boroxine dissociated to form equilibrium between itself and the monomeric bortezomib resulting in an apparent water solubility of about 0.5-1 mg/ml which was not sufficient for formulation purposes. In order to deal with such issues, the innovator company in their patent WO2002059130 application has described a stable formulation containing mannitol ester of bortezomib. The application '9130 also relates to a process of preparing such formulation by first dissolving the bortezomib in warm (temperature around 45±2° C.) TBA (tertiary butyl alcohol), then adding water and mannitol (1% bulking agent), followed by freeze drying. […] So, the FDA approved drug Bortezomib is now available as a mannitol boronic ester which in its reconstituted form consists of the mannitol ester in equilibrium with its hydrolysis product, the monomeric boronic acid. The drug substance exists in its cyclic anhydride from as a trimeric boroxine, as described below in FIG. 1.

[1] = boroxine placed in water, equilibrium with monomeric bortezomib; cited from earlier work

SMILES	water solubility (soluble in volumes of water) (Water solubility)	apparent water solubility [1]	water solubility (in words) (Water solubility)
CC(C)C[C@H](NC(=O)[C@H](Cc1ccccc1)NC(=O)c1cnccn1)B1OC(C(O)CO)C(C(O)CO)O1 (stereo in doubt) [Compound B, bortezomib-mannitol ester]	around 5 volumes water	–	–
CC(C)C[C@H](NC(=O)[C@H](Cc1ccccc1)NC(=O)c1cnccn1)B(O)O [Bortezomib, [(1R)-3-methyl-1-[[(2S)-1-oxo-3-phenyl-2-[(pyrazinylcarbonyl)amino]propyl]amino]butyl] boronic acid]	–	500 to 1000 µg/mL	poorly water soluble
